The record followed here is patent US20240109865A1, “INDAZOLE COMPOUNDS AS KINASE INHIBITORS” (TYRA BIOSCIENCES, INC., priority 2020, published 2024).

The structures appear in SMILES notation.

The subject of experiment [1] is RT112/84 cells (FGFR3-fusion). Kind of experiment: RT112/84 cancer cell line cell viability assay (CellTiter-Glo 2.0). Format: cell-based. To be noted: Homo sapiens, 72 hours, Cell Titer Glo 2.0. The essentials:
(§1)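 Viability was measured as cellular ATP by CellTiter-Glo 2.0 luminescence after 72 h compound exposure, using nine 10-fold doses from 30 μM, in triplicate. Cells were plated at 10,000/well in RPMI1640 with 10% FBS the day before dosing. Signal was expressed as % of DMSO-treated control, and IC50 came from a 4-parameter fit.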

Experiment [2] has as its target FGFR3-BAIAP2L1 Ba/F3 cells (Homo sapiens, UniProt P22607). Kind of experiment: Ba/F3 cell viability assay (CellTiter-Glo 2.0), FGFR3-BAIAP2L1 Ba/F3. It counts as cell-based. The note with it: for Ba/F3 FGFR1/FGFR3 Selectivity: FGFR3 > FGFR1 selectivity ratio in Ba/F3 FGFR fusion cell based assays; for IC50: read-out: Ba/F3 Cells FGFR3 (IC50 nM), FGFR3-BAIAP2L1 Ba/F3 cells, 48 hours, Cell Titer Glo 2.0. The essentials:
(§2)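 Viability read as ATP luminescence (CellTiter-Glo 2.0) after 48 h compound exposure, normalized to DMSO-treated cells and fitted with a 4-parameter curve for IC50. Cells: Ba/F3 dependent on FGFR1-BCR or FGFR3-BAIAP2L1 fusion kinase; top dose 30 μM, 10-fold steps, 9 doses in triplicate.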

For a further experiment, the target named is FGFR2 (Homo sapiens (Human), UniProt P21802). Kind of experiment: Kinase assay, binding constants (Kd), kinase-tagged T7 phage, qPCR. In outline:
(§3)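 Kinase-tagged T7 phage (grown in BL21-derived E. coli) competed with test compound for immobilized biotinylated ligand on streptavidin beads. Kds came from an 11-point 3-fold dilution series at 0.9% final DMSO. Bound kinase was eluted with non-biotinylated ligand and quantified by qPCR, with Hill slope fixed at −1.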
For orientation: Real-time PCR tracks product formation cycle by cycle.

For the next experiment, the target named is FGFR3 (V555M) (Homo sapiens (Human), UniProt P22607, V555M). The description is as above. The note with it: V555M mutant. The essentials:
as §3

The target in the next experiment is FGFR4 (Homo sapiens (Human), UniProt P22455). Described as above. In outline:
as §3

A further experiment concerns the target FGFR3 (Homo sapiens (Human), UniProt P22607). Described as above. The essentials: as §3
The next experiment addresses FGFR1 (Homo sapiens (Human), UniProt P11362). The experiment is described as above. In outline:
as §3

The test system of experiment [3] is UM-UC-14 cells (FGFR3(S249C)). Kind of experiment: UM-UC-14 cancer cell line cell viability assay (CellTiter-Glo 2.0). It counts as cell-based. The note with it: UMUC14, 72 hours, Cell Titer Glo 2.0. The source says:
Experimental Purpose: To detect the change of intracellular ATP by Cell Titer-Glo® and to evaluate the inhibitory effect of the compounds on cancer cell lines by determining the in vitro IC50 value of the compounds.
Cell Titer-Glo® 2.0 Luminescent cell viability assay reagent was purchased from Promega (Madison, WI). RT112/84 and KG-1 cell lines were purchased from American Type Culture Collection (Manassas, VA). UM-UC-14 cell line was purchased from Sigma (St. Louis, MO). RT112/84, UM-UC-14, and KG-1 cells were cultured in RPMI1640 media supplemented with 10% fetal bovine serum. Cultures were maintained at 37° C. in a humidified atmosphere of 5% C02 and 95% air.
Cell Viability Assay Procedure: Cells were plated in 96-well clear bottom/white plates (Corning #3903) at 10,000 cells/well in 100 μl of media, incubated overnight. The next day, test compound DMSO stock solutions were made at 10 mM and 2 μM final concentration. Compounds were then added to cells in a 9-dose, 10-fold dilution series starting at 30 μM with an HP 300e Digital Dispenser (each dose was applied in triplicate). DMSO was backfilled to each well up to 301 nL total volume of test compound+DMSO, and a total of 301 nL DMSO was added to a control/no test compound well in triplicate. The cells in cell culture plates were incubated with the compounds at 37° C. and 5% C02 for 72 hours. Then 50 μl of Cell Titer Glo 2.0 reagent was added to each well of the cell culture plates. The contents were covered from light and mixed on an orbital shaker at room temperature for 10 min. Luminescence was recorded by a Synergy H1 Microplate Reader (Biotek, Winooski, VT). Cells were assessed as a percentage of DMSO only treated control cells. Curves were plotted and IC50 values were calculated using the GraphPad Prism 8 program based on a sigmoidal dose-response equation (4 parameter).
In general terms: Cellular ATP, detected with luciferase, serves as a proxy for viable cell number.

A further experiment concerns the target FGFR1-BCR Ba/F3 cells (Homo sapiens, UniProt P11362). Kind of experiment: Ba/F3 cell viability assay (CellTiter-Glo 2.0), FGFR1-BCR Ba/F3. It counts as cell-based. The note with it: read-out: Ba/F3 Cells FGFR1 (IC50 nM), 48 hours, Cell Titer Glo 2.0. The essentials:
as §2

Experiment [4] relates to KG-1 cells (FGFR1-fusion). Kind of experiment: KG-1 cancer cell line cell viability assay (CellTiter-Glo 2.0). Format: cell-based. The note with it: Homo sapiens, 72 hours, Cell Titer Glo 2.0. In outline: as §1

Sequence of FGFR2 (P21802 22-821): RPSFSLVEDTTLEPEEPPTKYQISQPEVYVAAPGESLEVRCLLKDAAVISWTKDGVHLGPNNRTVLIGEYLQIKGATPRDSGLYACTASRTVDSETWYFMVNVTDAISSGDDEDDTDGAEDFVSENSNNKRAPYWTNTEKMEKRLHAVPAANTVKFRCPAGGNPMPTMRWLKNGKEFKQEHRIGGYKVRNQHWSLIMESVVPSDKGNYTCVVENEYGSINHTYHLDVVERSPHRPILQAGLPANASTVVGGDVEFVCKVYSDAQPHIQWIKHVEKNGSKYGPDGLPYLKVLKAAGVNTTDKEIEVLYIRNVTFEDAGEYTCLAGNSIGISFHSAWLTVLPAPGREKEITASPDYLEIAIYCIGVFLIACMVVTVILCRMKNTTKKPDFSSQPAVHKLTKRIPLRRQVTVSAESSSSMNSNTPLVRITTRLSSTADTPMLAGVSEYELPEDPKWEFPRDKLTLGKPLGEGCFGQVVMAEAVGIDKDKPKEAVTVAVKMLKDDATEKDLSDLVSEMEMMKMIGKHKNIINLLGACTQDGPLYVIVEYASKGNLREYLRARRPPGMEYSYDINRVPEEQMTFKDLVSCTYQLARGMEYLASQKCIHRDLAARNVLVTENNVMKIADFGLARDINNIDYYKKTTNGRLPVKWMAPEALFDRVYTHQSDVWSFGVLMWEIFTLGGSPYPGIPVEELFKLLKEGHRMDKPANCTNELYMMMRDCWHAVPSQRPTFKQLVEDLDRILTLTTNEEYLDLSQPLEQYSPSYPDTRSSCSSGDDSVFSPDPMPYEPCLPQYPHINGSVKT
Sequence of FGFR1 (P11362 22-822): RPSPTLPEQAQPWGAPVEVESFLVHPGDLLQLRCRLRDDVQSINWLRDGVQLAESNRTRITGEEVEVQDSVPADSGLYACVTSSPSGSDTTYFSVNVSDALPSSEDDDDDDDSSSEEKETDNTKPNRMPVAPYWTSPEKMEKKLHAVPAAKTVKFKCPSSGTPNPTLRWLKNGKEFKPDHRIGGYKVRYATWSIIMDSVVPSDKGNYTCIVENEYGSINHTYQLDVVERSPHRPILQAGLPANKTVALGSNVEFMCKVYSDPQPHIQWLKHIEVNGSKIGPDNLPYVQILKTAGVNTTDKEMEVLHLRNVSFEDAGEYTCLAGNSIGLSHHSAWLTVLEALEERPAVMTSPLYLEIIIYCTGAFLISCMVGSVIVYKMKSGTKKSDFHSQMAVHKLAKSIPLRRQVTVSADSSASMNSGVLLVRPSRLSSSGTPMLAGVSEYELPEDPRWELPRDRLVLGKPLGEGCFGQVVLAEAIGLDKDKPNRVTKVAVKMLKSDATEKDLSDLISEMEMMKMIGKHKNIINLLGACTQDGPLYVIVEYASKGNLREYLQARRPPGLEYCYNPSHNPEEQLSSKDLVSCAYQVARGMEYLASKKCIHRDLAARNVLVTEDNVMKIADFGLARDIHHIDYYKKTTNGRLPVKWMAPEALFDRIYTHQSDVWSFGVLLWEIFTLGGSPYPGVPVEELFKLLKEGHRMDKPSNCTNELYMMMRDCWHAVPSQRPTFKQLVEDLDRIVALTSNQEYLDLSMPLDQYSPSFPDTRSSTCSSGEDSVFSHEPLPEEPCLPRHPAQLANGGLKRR
Sequence of FGFR1-BCR Ba/F3 cells (P11362 22-822 limits assumed, change not shown): as the sequence (P11362 22-822) above
Sequence of FGFR4 (P22455 22-802): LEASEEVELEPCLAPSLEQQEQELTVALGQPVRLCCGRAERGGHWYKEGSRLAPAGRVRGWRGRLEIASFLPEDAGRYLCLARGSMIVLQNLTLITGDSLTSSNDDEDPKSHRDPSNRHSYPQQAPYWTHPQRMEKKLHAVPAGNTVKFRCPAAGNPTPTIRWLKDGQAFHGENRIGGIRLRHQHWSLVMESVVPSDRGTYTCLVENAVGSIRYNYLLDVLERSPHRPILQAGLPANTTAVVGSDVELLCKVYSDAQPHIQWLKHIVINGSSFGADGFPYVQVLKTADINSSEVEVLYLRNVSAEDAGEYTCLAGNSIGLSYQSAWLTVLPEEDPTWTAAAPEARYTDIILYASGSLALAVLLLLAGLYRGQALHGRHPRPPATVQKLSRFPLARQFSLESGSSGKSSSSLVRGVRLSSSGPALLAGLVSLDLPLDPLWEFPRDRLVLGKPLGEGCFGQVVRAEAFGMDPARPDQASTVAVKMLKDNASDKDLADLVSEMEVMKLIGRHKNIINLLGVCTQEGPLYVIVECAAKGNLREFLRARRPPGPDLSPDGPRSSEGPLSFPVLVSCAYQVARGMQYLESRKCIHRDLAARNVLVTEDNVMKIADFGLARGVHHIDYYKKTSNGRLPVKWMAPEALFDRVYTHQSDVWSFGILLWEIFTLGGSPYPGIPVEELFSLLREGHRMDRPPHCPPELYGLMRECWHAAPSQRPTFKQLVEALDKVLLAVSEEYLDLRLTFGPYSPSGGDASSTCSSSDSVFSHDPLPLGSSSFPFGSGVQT
Sequence of FGFR3-BAIAP2L1 Ba/F3 cells (P22607 23-806 limits assumed, change not shown): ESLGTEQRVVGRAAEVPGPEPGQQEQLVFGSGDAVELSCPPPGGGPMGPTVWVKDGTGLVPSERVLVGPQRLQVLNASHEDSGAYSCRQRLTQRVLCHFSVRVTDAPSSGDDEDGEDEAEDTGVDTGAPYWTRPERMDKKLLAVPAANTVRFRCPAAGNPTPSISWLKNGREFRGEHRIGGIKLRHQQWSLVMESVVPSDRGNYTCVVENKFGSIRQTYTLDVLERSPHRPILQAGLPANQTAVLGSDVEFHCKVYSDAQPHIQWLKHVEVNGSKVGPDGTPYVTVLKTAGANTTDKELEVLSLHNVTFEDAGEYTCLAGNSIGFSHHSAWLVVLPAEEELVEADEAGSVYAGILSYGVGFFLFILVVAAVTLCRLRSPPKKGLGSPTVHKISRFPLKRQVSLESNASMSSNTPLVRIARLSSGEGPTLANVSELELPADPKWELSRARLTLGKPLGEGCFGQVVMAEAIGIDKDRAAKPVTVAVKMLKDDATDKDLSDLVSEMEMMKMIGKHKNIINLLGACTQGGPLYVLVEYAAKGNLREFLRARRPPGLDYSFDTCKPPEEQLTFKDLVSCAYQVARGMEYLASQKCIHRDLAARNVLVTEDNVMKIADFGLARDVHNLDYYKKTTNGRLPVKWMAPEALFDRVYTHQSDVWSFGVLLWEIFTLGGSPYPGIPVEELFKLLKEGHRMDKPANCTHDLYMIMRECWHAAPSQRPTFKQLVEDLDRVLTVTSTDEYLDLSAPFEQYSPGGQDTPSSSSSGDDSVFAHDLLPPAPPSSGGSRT
Sequence of FGFR3 (P22607 23-806): as the sequence (P22607 23-806 limits assumed, change not shown) above
Sequence of FGFR3 (V555M) (P22607 23-806 V555M): as the sequence (P22607 23-806 limits assumed, change not shown) above, with V533M counted along it

Regarding `C[C@@H](Oc1ccc2[nH]nc(-c3ccc(N4CCN(C(=O)N(C)C)CC4)nc3)c2c1)c1c(Cl)cncc1Cl` [Example 5, 4-[5-[5-[(1R)-1-(3,5-dichloro-4-pyridyl)ethoxy]-1H-indazol-3-yl]-2-pyridyl]-N,N-dimethyl-piperazine-1-carboxamide], the IC50 was in the range of 1 to 20 nM in experiment [1]; 1 to 20 nM in experiment [2]; 1 to 20 nM in experiment [3]; 100 to 300 nM on FGFR1-BCR Ba/F3 cells; 20 to 100 nM in experiment [4]. The “Ba/F3 FGFR1/FGFR3 Selectivity” value in [2] is on record as 22. Further, the dissociation constant (Kd) on FGFR2, at FGFR3 (V555M), on FGFR4, on FGFR3 and at FGFR1 was 1 to 20 nM throughout.

Take `C[C@@H](Oc1ccc2[nH]nc(-c3ccc(N4CCN(S(C)(=O)=O)CC4)nc3)c2c1)c1c(Cl)cncc1Cl` [Example 6, 5-[(1R)-1-(3,5-dichloro-4-pyridyl)ethoxy]-3-[6-(4-methylsulfonyl-piperazin-1-yl)-3-pyridyl]-1H-indazole]: the IC50 in [1] lay in the range of 1 to 20 nM; in experiment [2] it was 1 to 20 nM; in experiment [3] it was 1 to 20 nM; on FGFR1-BCR Ba/F3 cells, 20 to 100 nM; in experiment [4], 20 to 100 nM. In addition, in experiment [2], the “Ba/F3 FGFR1/FGFR3 Selectivity” value is given as 13. In addition, the Kd (in general, the concentration at which binding is half-saturated) on FGFR2 was in the range of 20 to 100 nM; at FGFR3 (V555M), 1 to 20 nM; at FGFR4, 1 to 20 nM; at FGFR3, 1 to 20 nM; at FGFR1 it was 1 to 20 nM.

`C[C@@H](Oc1ccc2[nH]nc(-c3ccc(N4CCN(S(=O)(=O)N5CCN(C)CC5)CC4)nc3)c2c1)c1c(Cl)cncc1Cl` [Example 8, 5-[(1R)-1-(3,5-dichloro-4-pyridyl)ethoxy]-3-[6-[4-(4-methylpiperazin-1-yl)sulfonylpiperazin-1-yl]-3-pyridyl]-1H-indazole]: the IC50 was 1 to 20 nM in [1]; 1 to 20 nM in [2]; 1 to 20 nM in [3]; 100 to 300 nM at FGFR1-BCR Ba/F3 cells; 100 to 300 nM in experiment [4]. For the same compound, the “Ba/F3 FGFR1/FGFR3 Selectivity” value in experiment [2] amounted to 16. In addition, the Kd at FGFR2 is 20 to 100 nM; at FGFR3 (V555M) it was 1 to 20 nM; at FGFR4, 1 to 20 nM; at FGFR3 it was 1 to 20 nM; at FGFR1, 20 to 100 nM.

In the case of `CCC(=O)N1CCN(c2ccc(-c3n[nH]c4ccc(O[C@H](C)c5c(Cl)cncc5Cl)cc34)cn2)CC1` [Example 9, 1-[4-[5-[5-[(1R)-1-(3,5-dichloro-4-pyridyl)ethoxy]-1H-indazol-3-yl]-2-pyridyl]piperazin-1-yl]propan-1-one], the IC50 in [1] is 1 to 20 nM; in experiment [2] it was 1 to 20 nM; in experiment [3] it was 1 to 20 nM; on FGFR1-BCR Ba/F3 cells, 100 to 300 nM; in [4], 20 to 100 nM. In addition, in experiment [2], the “Ba/F3 FGFR1/FGFR3 Selectivity” value is given as 19. In addition, the dissociation constant (Kd) on FGFR2, at FGFR3 (V555M), on FGFR4, at FGFR3 and on FGFR1 was 1 to 20 nM in each case.

With `C[C@@H](Oc1ccc2[nH]nc(-c3cnc(N4CCNCC4)c(F)c3)c2c1)c1c(Cl)cncc1Cl` [Example 10, 5-[(1R)-1-(3,5-Dichloro-4-pyridyl)ethoxy]-3-(5-fluoro-6-piperazin-1-yl-3-pyridyl)-1H-indazole], the IC50 in [1] lay within 1 to 20 nM; in experiment [2], 1 to 20 nM; in [3], 1 to 20 nM; at FGFR1-BCR Ba/F3 cells, 20 to 100 nM; in experiment [4], 20 to 100 nM. In [2], the “Ba/F3 FGFR1/FGFR3 Selectivity” value amounted to 9. Also, the Kd at FGFR2, at FGFR3 (V555M), at FGFR4, at FGFR3 and on FGFR1 was 1 to 20 nM throughout.

As for `C[C@@H](Oc1ccc2[nH]nc(-c3cnc(N4CCNCC4)nc3)c2c1)c1c(Cl)cncc1Cl` [Example 11, 5-[(1R)-1-(3,5-dichloro-4-pyridyl)ethoxy]-3-(2-piperazin-1-ylpyrimidin-5-yl)-1H-indazole], the IC50 lay within 1 to 20 nM in experiment [1]; 1 to 20 nM in experiment [2]; 20 to 100 nM in [3]; 100 to 300 nM at FGFR1-BCR Ba/F3 cells; 20 to 100 nM in [4]. In experiment [2], the “Ba/F3 FGFR1/FGFR3 Selectivity” value is given as 9. Moreover, the Kd on FGFR2, at FGFR3 (V555M), at FGFR4, at FGFR3 and at FGFR1 was 1 to 20 nM throughout.

With `C[C@@H](Oc1ccc2[nH]nc(-c3ccc(N4CCN(C(N)=O)CC4)nc3)c2c1)c1c(Cl)cncc1Cl` [Example 12, 4-[5-[5-[(1R)-1-(3,5-dichloro-4-pyridyl)ethoxy]-1H-indazol-3-yl]-2-pyridyl]piperazine-1-carboxamide], the IC50 in experiment [1] was 1 to 20 nM; in [2], 1 to 20 nM; in experiment [3], 1 to 20 nM; at FGFR1-BCR Ba/F3 cells it was 100 to 300 nM; in [4] it was 20 to 100 nM. In addition, the “Ba/F3 FGFR1/FGFR3 Selectivity” value in experiment [2] amounted to 19. For the same compound, the Kd on FGFR2, at FGFR3 (V555M), on FGFR4, at FGFR3 and on FGFR1 was 1 to 20 nM in each case.

As for `C[C@@H](Oc1ccc2[nH]nc(-c3cnc(N4CCN(C(=O)N5CCN(C)CC5)CC4)c(F)c3)c2c1)c1c(Cl)cncc1Cl` [Example 13, [4-[5-[5-[(1R)-1-(3,5-Dichloro-4-pyridyl)ethoxy]-1H-indazol-3-yl]-3-fluoro-2-pyridyl]piperazin-1-yl]-(4-methylpiperazin-1-yl)methanone], the IC50 in experiment [1] lay within 1 to 20 nM; in experiment [2] it was 20 to 100 nM; in experiment [3] it was 20 to 100 nM; at FGFR1-BCR Ba/F3 cells it was 100 to 300 nM; in experiment [4] it was 20 to 100 nM. In addition, in experiment [2], the “Ba/F3 FGFR1/FGFR3 Selectivity” value amounted to 11. Further, the equilibrium dissociation constant (Kd) at FGFR2, on FGFR3 (V555M), on FGFR4, at FGFR3 and on FGFR1 was 1 to 20 nM throughout.

Consider `C[C@@H](Oc1ccc2[nH]nc(-c3cnc(N4CCN(S(C)(=O)=O)CC4)nc3)c2c1)c1c(Cl)cncc1Cl` [Example 14, 5-[(1R)-1-(3,5-Dichloro-4-pyridyl)ethoxy]-3-[2-(4-methylsulfonylpiperazin-1-yl)pyrimidin-5-yl]-1H-indazole], for which the IC50 is 1 to 20 nM in experiment [1]; 1 to 20 nM in experiment [2]; 20 to 100 nM in experiment [3]; greater than 300 nM on FGFR1-BCR Ba/F3 cells; 100 to 300 nM in [4]. Further, the “Ba/F3 FGFR1/FGFR3 Selectivity” value in experiment [2] came out at 18. Besides, the equilibrium dissociation constant (Kd) on FGFR2 lay in the range of 20 to 100 nM; on FGFR3 (V555M), 1 to 20 nM; on FGFR4 it was 1 to 20 nM; at FGFR3 it was 1 to 20 nM; at FGFR1 it was 1 to 20 nM.
